Source: publication PMC11783601, “Analogue-Sensitive Inhibition of Histone Demethylases Uncovers Member-Specific Function in Ribosomal Protein Synthesis” (Journal of the American Chemical Society, 2025)

Target: T1, KDM4A-F185A (Homo sapiens, UniProt O75164, F185A)
T1 construct: human KDM4A-jmjC domain (catalytic domain of KDM4A); 6xHis (N); host or cells: E. coli BL21 (DE3)
T1 sequence (O75164 142-308 F185A limits assumed): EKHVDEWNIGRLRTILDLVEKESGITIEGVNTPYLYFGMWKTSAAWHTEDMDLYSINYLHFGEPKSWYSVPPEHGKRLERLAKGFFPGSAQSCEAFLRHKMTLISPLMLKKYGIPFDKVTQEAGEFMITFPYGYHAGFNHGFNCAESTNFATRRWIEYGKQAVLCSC
Experiment: MALDI-MS end-point demethylase assay on H3K9me3 peptide
Type: biochemical
Settings: H3K9me3 peptide, 200 µM 2OG, fixed concentration of NOG analogue
Excerpt: To develop an appropriate inhibitor, we selected N-oxalyl glycine (NOG, 2) scaffold because of its structural similarity with 2OG and the ability to inhibit 2OG-utilizing enzymes including KDMs (Figure 1C).[29]−[31] Substituting −CH2– at C3 of 2OG with −NH– in NOG prevents its oxidative decarboxylation by KDMs, making the inhibitor cofactor-competitive. […] We synthesized a panel of eight NOG analogues (3–10), derived from L-amino acids, carrying varied steric substituents at C4, with the reasoning that a bulky substituent at C4 would selectively fit into the expanded pocket of F185A over wild type KDM4A (Figures 2B and S1–S6, Schemes S1 and S2). The inhibitory effect of each compound was determined based on the extent of enzyme-catalyzed demethylation of a canonical peptide substrate corresponding to the N-terminus of histone 3 carrying trimethylated lysine at position 9 (H3K9me3). […] Such orthogonal inhibition of the engineered demethylase constitutes a powerful chemical probe to study the functions of a specific member of an enzyme family without issues of off-target activity. […]
assay (Biorad) kit with BSA concentrations as a standard. […]
8. Demethylase activity of the wild type and mutant KDM4 proteins on peptide substrate To monitor enzymatic activity, a demethylase activity assay was optimized and then observed through MALDI-TOF.7 Each histone demethylase assay sample included either wild type or mutant enzyme (10µM KDM4A, 7.5µM KDM4C, 10µM KDM4D, or 1µM KDM4E), 10 µM peptide, 200 µM 2OG, 50 mM Tris pH 8, […], 0-200µM NOG analogue, and 2 mM L-ascorbic acid with a total assay volume of 10 µL. Fe(II) supplement and L-ascorbic acid […]
Lastly, the 2OG and peptide were […]
positive mode and analyzed on Bruker FlexAnalysis software. The percent demethylated peptide […]
the multiple demethylation events on the peptide. […]
varying concentrations (0-10 µM). […] The fluorescence intensity was measured with excitation = 340 nm and emission = 490 nm on a TECAN Infinite M1000Pro. […]
The set up and analysis for IC50 of L-Leu NOG against KDM4A F185A enzyme was similar to that described in the coupled fluorescence assay section, but adjusted to function as an end point assay. […]
and varying concentration of compounds (NOGs 6, 9 and 10) and a substrate cocktail (200 µM 2OG and 60 µM H3K9me3 peptide). Different concentrations of NOG 6 were measured at one time point ranging for 1-5 hours. For 9 and 10, the same set-up remained, but enzymatic activity was measured via MALDI-TOF analysis, and relative activity and inhibition was calculated for different NOG concentrations as described above. […]
and analyzed on Bruker FlexAnalysis software. The percent demethylated peptide was calculated by first multiplying the K27me1 peak by 2 and the K27me0 peak by 3 to account for the multiple

SMILES: CC(C)CC(NC(=O)C(=O)O)C(=O)O (stereo not shown) [compound 6, N-oxalyl leucine]
- inhibition of F185A mutant demethylase activity (MALDI-MS): complete inhibition
